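A five-concentration, 48-hour dose response in 96-well plates underlies each endpoint, interpolated linearly between surrounding concentrations. GI50 is the concentration that inhibits growth by half.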 Activity calls are given as the source filed them. Rule as the data show it: active = GI50 up to about 1.1 µM and inactive = higher.
Key:
Assay in all cases: NCI anticancer screen, dose series, 48 h
HL-60 = tested on: HL-60
HOP-92 = tested on: HOP-92
Hs-578T = tested on: Hs-578T
K562 = tested on: K562
KM12 = tested on: KM12
LOX IMVI = tested on: LOX IMVI
MCF7 = tested on: MCF7
MDA-MB-231 = tested on: MDA-MB-231
NCI-H23 = tested on: NCI-H23
NCI/ADR-RES = tested on: NCI/ADR-RES
OVCAR-3 = tested on: OVCAR-3
OVCAR-8 = tested on: OVCAR-8
RXF 393 = tested on: RXF 393
SF-295 = tested on: SF-295
SK-MEL-5 = tested on: SK-MEL-5
SN12C = tested on: SN12C
SNB-19 = tested on: SNB-19
SNB-75 = tested on: SNB-75
NCI-H522 = tested on: NCI-H522
SR = tested on: SR

Measured: GI50

CCc1nc2cc(F)ccc2[nH]c1=O
inactive: HL-60 > 100 µM | HOP-92 > 100 µM | Hs-578T 10.4 µM | K562 > 100 µM | KM12 > 100 µM | LOX IMVI > 100 µM | MCF7 > 100 µM | MDA-MB-231 > 100 µM | NCI-H23 > 100 µM | NCI/ADR-RES > 100 µM | OVCAR-3 > 100 µM | OVCAR-8 > 100 µM | RXF 393 27.9 µM | SF-295 > 100 µM | SK-MEL-5 > 100 µM | SN12C > 100 µM | SNB-19 > 100 µM | SNB-75 82.8 µM

CN(C)c1ccc(/C=C(\NC(=O)c2ccccc2)C(=O)Nc2ccccc2C(=O)NCc2ccccc2)cc1
inactive: HL-60 40.6 µM | HOP-92 > 100 µM | Hs-578T > 100 µM | K562 > 100 µM | KM12 58.5 µM | LOX IMVI > 100 µM | MCF7 > 100 µM | MDA-MB-231 > 100 µM | NCI-H23 > 100 µM | NCI-H522 27.6 µM | NCI/ADR-RES 43.1 µM | OVCAR-3 > 100 µM | OVCAR-8 59.4 µM | RXF 393 > 100 µM | SF-295 > 100 µM | SK-MEL-5 41.9 µM | SN12C > 100 µM | SNB-19 85.5 µM
active: SNB-75 0.0955 µM

Cc1n[nH]c(=O)n1/N=C\c1ccccc1
active: RXF 393 < 0.01 µM
inactive: HL-60 > 100 µM | Hs-578T > 100 µM | K562 > 100 µM | KM12 > 100 µM | LOX IMVI > 100 µM | MCF7 > 100 µM | MDA-MB-231 > 100 µM | NCI-H23 > 100 µM | NCI-H522 > 100 µM | NCI/ADR-RES > 100 µM | OVCAR-3 > 100 µM | OVCAR-8 > 100 µM | SF-295 59.2 µM | SK-MEL-5 > 100 µM | SN12C > 100 µM | SR > 100 µM

CC(=O)/N=C1\NC(=O)/C(=C/c2ccc(Cl)cc2Cl)N1C
active: HL-60 0.277 µM
inactive: HOP-92 83.8 µM | Hs-578T 23.1 µM | KM12 > 100 µM | LOX IMVI 17.6 µM | MCF7 > 100 µM | MDA-MB-231 74.6 µM | NCI-H23 > 100 µM | NCI-H522 > 100 µM | NCI/ADR-RES 21.7 µM | OVCAR-3 96.4 µM | OVCAR-8 31.6 µM | RXF 393 75 µM | SF-295 96.2 µM | SK-MEL-5 35.7 µM | SNB-19 47.6 µM | SNB-75 58.1 µM

O=C1CSCc2sccc21
inactive: HL-60 > 100 µM | Hs-578T > 100 µM | K562 > 100 µM | KM12 > 100 µM | MCF7 > 100 µM | MDA-MB-231 > 100 µM | NCI-H23 > 100 µM | NCI-H522 > 100 µM | NCI/ADR-RES > 100 µM | OVCAR-3 > 100 µM | OVCAR-8 > 100 µM | SF-295 > 100 µM | SK-MEL-5 > 100 µM | SN12C > 100 µM | SNB-19 > 100 µM | SNB-75 52.8 µM | SR > 100 µM
active: RXF 393 < 0.01 µM

CC(C)(CN1CCCCC1)C(/C=C/c1ccc(Cl)c(Cl)c1)=N\NC(=O)N/N=C(/C=C/c1ccc(Cl)c(Cl)c1)C(C)(C)CN1CCCCC1
inactive: HL-60 1.52 µM | Hs-578T 1.81 µM | KM12 1.63 µM | LOX IMVI 1.12 µM | MCF7 1.54 µM | MDA-MB-231 2.06 µM | NCI-H23 1.93 µM | NCI-H522 1.82 µM | NCI/ADR-RES 1.73 µM | OVCAR-3 1.56 µM | OVCAR-8 1.87 µM | SF-295 1.71 µM | SK-MEL-5 1.99 µM | SN12C 1.77 µM | SNB-19 1.69 µM | SNB-75 1.55 µM
active: K562 0.325 µM | RXF 393 0.659 µM

COC(=O)[C@@H](NC(=O)N(Cc1ccccc1)C[C@H](CC(C)C)NC(=O)[C@@H](NC(=O)OC(C)(C)C)C(C)C)C(C)C
inactive: HL-60 > 100 µM | HOP-92 > 100 µM | Hs-578T 88.1 µM | K562 > 100 µM | KM12 > 100 µM | LOX IMVI > 100 µM | MDA-MB-231 > 100 µM | NCI-H23 > 100 µM | NCI-H522 > 100 µM | NCI/ADR-RES > 100 µM | OVCAR-3 > 100 µM | OVCAR-8 > 100 µM | RXF 393 > 100 µM | SF-295 > 100 µM | SK-MEL-5 > 100 µM | SNB-19 > 100 µM | SNB-75 33.7 µM | SR > 100 µM

Oc1c(CN2CCOCC2)ccc2cccnc12
inactive: HOP-92 > 10 µM | Hs-578T > 10 µM | K562 4.4 µM | KM12 > 10 µM | LOX IMVI > 10 µM | MCF7 4.14 µM | MDA-MB-231 > 10 µM | NCI-H23 > 10 µM | NCI-H522 2.62 µM | NCI/ADR-RES 2.34 µM | OVCAR-3 > 10 µM | OVCAR-8 > 10 µM | RXF 393 > 10 µM | SF-295 > 10 µM | SK-MEL-5 > 10 µM | SN12C > 10 µM | SNB-19 > 10 µM | SNB-75 > 10 µM
